In patent US8975406B2, “Compound useful for the treatment of degenerative and inflammatory diseases” (Galapagos N.V., priority 2011, dated 2015):

Legend:
Recombinant human JAK1 = target: T1, Recombinant human JAK1 (Homo sapiens, UniProt P23458); test: JAK1 Ulight-JAK1 peptide assay; assay type: biochemical; conditions: Ulight-JAK1(tyr1023) peptide, 7 μM ATP
T1 construct: catalytic domain (amino acids 866-1154; catalog number PV4774); purchased Invitrogen PV4774
Description: Recombinant human JAK1 (catalytic domain, amino acids 866-1154; catalog number PV4774) was purchased from Invitrogen. 1 ng of JAK1 was incubated with 20 nM Ulight-JAK1(tyr1023) peptide (Perkin Elmer catalog number TRF0121) in kinase reaction buffer (25 mM MOPS pH6.8, 0.01% Brij-35, 5 mM MgCl2, 2 mM DTT, 7 μM ATP) with or without 4 μL containing test compound or vehicle (DMSO, 1% final concentration), in a total volume of 20 μL, in a white 384 Opti plate (Perkin Elmer, catalog number 6007290). After 60 min at room temperature, reactions were stopped by adding 20 μL/well of detection mixture (1× detection buffer (Perkin Elmer, catalog number CR97-100C), 0.5 nM Europium-anti-phosphotyrosine (PT66) (Perkin Elmer, catalog number AD0068), 10 mM EDTA). Readout is performed using the Envision with excitation at 320 nm and measuring emission at 615 nm (Perkin Elmer). Kinase activity was calculated by subtracting relative fluorescence units (RFU) obtained in the presence of a positive control inhibitor (10 μM staurosporine) from RFU obtained in the presence of vehicle. The ability of a test compound to inhibit this activity was determined as: Percentage inhibition=((RFU determined for sample with test compound present−RFU determined for sample with positive control inhibitor)divided by(RFU determined in the presence of vehicle−RFU determined for sample with positive control inhibitor))*100.
(§1) Dose dilution series were prepared for the compounds enabling the testing of dose-response effects in the JAK1 assay and the calculation of the IC50 for the compound. Each compound is routinely tested at concentration of 20 μM followed by a ⅕ serial dilution, 10 points in a final concentration of 1% DMSO. When potency of compound series increases, more dilutions are prepared and/or the top concentration are lowered (e.g. 5 μM, 1 μM). The data are expressed as the average IC50 from the assays±standard error of the mean.

Recombinant human JAK2 = target: T2, Recombinant human JAK2 (Homo sapiens, UniProt O60674); test: JAK2 Ulight-JAK1 peptide assay; assay type: biochemical; conditions: Ulight-JAK1(tyr1023) peptide, 7.5 μM ATP
T2 construct: catalytic domain (amino acids 808-1132; catalog number PV4210); GST; purchased Invitrogen PV4210
T2 sequence (O60674 808-1132): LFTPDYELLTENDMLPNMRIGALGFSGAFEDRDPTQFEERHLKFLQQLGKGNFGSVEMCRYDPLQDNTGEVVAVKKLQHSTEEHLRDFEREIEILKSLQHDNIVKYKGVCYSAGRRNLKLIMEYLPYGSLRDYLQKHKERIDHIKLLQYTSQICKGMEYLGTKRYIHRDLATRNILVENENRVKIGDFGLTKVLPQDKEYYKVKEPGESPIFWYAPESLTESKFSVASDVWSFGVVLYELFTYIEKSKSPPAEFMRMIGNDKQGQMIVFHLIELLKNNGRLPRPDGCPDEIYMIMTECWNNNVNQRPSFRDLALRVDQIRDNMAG
Description: Recombinant human JAK2 (catalytic domain, amino acids […]; catalog number PV4210) was purchased from Invitrogen. 0.0125 mU of JAK2 was incubated with 25 nM Ulight-JAK1(tyr1023) peptide (Perkin Elmer catalog number TRF0121) in kinase reaction buffer (25 mM HEPES pH7.0, 0.01% Triton X-100, 7.5 mM MgCl2, 2 mM DTT, 7.5 μM ATP) with or without 4 μL containing test compound or vehicle (DMSO, 1% final concentration), in a total volume of 20 μL, in a white 384 Opti plate (Perkin Elmer, catalog number 6007290). After 60 min at room temperature, reactions were stopped by adding 20 μL/well of detection mixture (1× detection buffer (Perkin Elmer, catalog number CR97-100C), 0.5 nM Europium-anti-phosphotyrosine (PT66) (Perkin Elmer, catalog number AD0068), 10 mM EDTA). Readout is performed using the Envision with excitation at 320 nm and measuring emission at 615 nm (Perkin Elmer). Kinase activity was calculated by subtracting relative fluorescence units (RFU) obtained in the presence of a positive control inhibitor (10 μM staurosporine) from RFU obtained in the presence of vehicle. The ability of a test compound to inhibit this activity was determined as: Percentage inhibition=((RFU determined for sample with test compound present−RFU determined for sample with positive control inhibitor)divided by(RFU determined in the presence of vehicle−RFU determined for sample with positive control inhibitor))*100.
as §1, with “each compound” for “the compounds”, “JAK2” for “JAK1”

[1] = system: JAK-STAT signalling in HeLa cells; test: JAK-STAT signalling assay (pSTAT1(2)-luciferase reporter, OSM-triggered HeLa cells); assay type: cell-based; conditions: human OSM 33 ng/mL
Description: HeLa cells were maintained in Dulbecco's Modified Eagle's Medium (DMEM) containing 10% heat inactivated fetal calf serum, 100 U/mL penicillin and 100 μg/mL streptomycin. HeLa cells were used at 70% confluence for transfection. 20,000 cells in 87 μL cell culture medium were transiently transfected with 40 ng pSTAT1(2)-luciferase reporter (Panomics), 8 ng of LacZ reporter as internal control reporter and 52 ng of pBSK using 0.32 μL Jet-PEI (Polyplus) as transfection reagent per well in 96-well plate format. After overnight incubation at 37° C., 5% CO2, transfection medium was removed. 81 μL of DMEM+1.5% heat inactivated fetal calf serum was added. 9 μL compound at 10× concentration was added for 60 min and then 10 μL of human OSM (Peprotech) at 33 ng/mL final concentration.
All compounds were tested in duplicate starting from 20 μM followed by a ⅓ serial dilution, 8 doses in total (20 μM-6.6 μM-2.2 μM-740 nM-250 nM-82 nM-27 nM-9 nM) in a final concentration of 0.2% DMSO.
After overnight incubation at 37° C., 5% CO2 cells were lysed by adding 100 μL lysis buffer/well (PBS, 0.9 mM CaCl2, 0.5 mM MgCl2, 10% Trehalose, 0.05% Tergitol NP9, 0.3% BSA).
40 μL of cell lysate was used to read β-galactosidase activity by adding 180 μL β-Gal solution (30 μl ONPG 4 mg/mL+150 μL β-Galactosidase buffer (0.06 M Na2HPO4, 0.04 M NaH2PO4, 1 mM MgCl2)) for 20 min. The reaction was stopped by addition of 50 μL Na2CO3 1 M. Absorbance was read at 405 nm.
Luciferase activity was measured using 40 μL cell lysate plus 40 μL of Steadylite® as described by the manufacturer (Perkin Elmer), on the Envision (Perkin Elmer).
Omitting OSM was used as a positive control (100% inhibition). As negative control 0.5% DMSO (0% inhibition) was used. The positive and negative controls were used to calculate z′ and ‘percent inhibition’ (PIN) values. Percentage inhibition=((fluorescence determined in the presence of vehicle−fluorescence determined for sample with test compound present)divided by(fluorescence determined in the presence of vehicle−fluorescence determined for sample without trigger))*100.
PIN values were plotted for compounds tested in dose-response and EC50 values were derived.

T1 sequence (P23458 866-1154): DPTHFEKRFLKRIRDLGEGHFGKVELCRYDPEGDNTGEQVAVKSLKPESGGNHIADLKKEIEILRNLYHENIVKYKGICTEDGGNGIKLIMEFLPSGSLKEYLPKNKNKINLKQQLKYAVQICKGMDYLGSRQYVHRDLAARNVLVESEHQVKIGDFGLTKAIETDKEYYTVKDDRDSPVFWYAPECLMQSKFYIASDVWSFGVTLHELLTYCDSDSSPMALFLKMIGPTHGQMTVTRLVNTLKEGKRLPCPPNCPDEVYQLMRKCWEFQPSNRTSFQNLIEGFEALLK

SMILES	IC50 (Recombinant human JAK1) [nM]	IC50 (Recombinant human JAK2) [nM]	IC50 [1] [nM]
O=C(Nc1cc2c(-c3ccc(OCc4ccccc4)cc3)cccn2n1)C1CC1 [Compound 2, N-(4-(4-(benzyloxy)phenyl)pyrazolo[1,5-a]pyridin-2-yl)cyclopropanecarboxamide]	101 to 500	101 to 500	
O=C(Nc1cc2c(-c3ccc4c(ccn4Cc4ccccc4)c3)cccn2n1)C1CC1 [Compound 3, N-(4-(1-benzyl-1H-indol-5-yl)pyrazolo[1,5-a]pyridin-2-yl)cyclopropanecarboxamide]	> 1000	101 to 500	> 1000
O=C(Nc1cc2c(-c3ccc4[nH]ccc4c3)cccn2n1)C1CC1 [Compound 4, N-(4-(1H-indol-5-yl)pyrazolo[1,5-a]pyridin-2-yl)cyclopropanecarboxamide]	101 to 500	0.01 to 100	> 1000
COc1ccc(-c2cccn3nc(NC(=O)C4CC4)c(-c4ccccc4)c23)cc1 [Compound 7, N-(4-(4-methoxyphenyl)-3-phenylpyrazolo[1,5-a]pyridin-2-yl)cyclopropanecarboxamide]	> 1000	> 1000	
O=C(Nc1cc2c(-c3ccc(OCc4cccnc4)cc3)cccn2n1)C1CC1 [Compound 8, N-(4-(4-(pyridin-3-ylmethoxy)phenyl)pyrazolo[1,5-a]pyridin-2-yl)cyclopropanecarboxamide]			> 1000
CC(=O)Nc1cc2c(-c3ccc(CC(=O)N4CCCCC4)cc3)cccn2n1 [Compound 35, N-(4-(4-(2-oxo-2-(piperidin-1-yl)ethyl)phenyl)pyrazolo[1,5-a]pyridin-2-yl)acetamide]	101 to 500	0.01 to 100	
CC(=O)Nc1cc2c(-c3ccc(CC(=O)N4CCOCC4)cc3)cccn2n1 [Compound 36, N-(4-(4-(2-morpholino-2-oxoethyl)phenyl)pyrazolo[1,5-a]pyridin-2-yl)acetamide]	101 to 500	0.01 to 100	
CC(=O)Nc1cc2c(-c3ccc(CC(=O)N4COCC4(C)C)cc3)cccn2n1 [Compound 38, N-(4-(4-(2-(4,4-dimethyloxazolidin-3-yl)-2-oxoethyl)phenyl)pyrazolo[1,5-a]pyridin-2-yl)acetamide]	101 to 500	0.01 to 100	
CC(c1ccc(-c2cccn3nc(NC(=O)C4CC4)cc23)cc1)N1CCN(S(C)(=O)=O)CC1 (stereo not drawn) [Compound 43, N-(4-(4-(1-(4-(methylsulfonyl)piperazin-1-yl)ethyl)phenyl)pyrazolo[1,5-a]pyridin-2-yl)cyclopropanecarboxamide]	0.01 to 100	0.01 to 100	

Now from value to compound:

IC50 (Recombinant human JAK1) [nM]	IC50 (Recombinant human JAK2) [nM]	IC50 [1] [nM]	SMILES
0.01 to 100	0.01 to 100	> 1000	COc1ccc(-c2cccn3nc(NC(=O)C4CC4)cc23)cc1 [Compound 1, N-(4-(4-methoxyphenyl)pyrazolo[1,5-a]pyridin-2-yl)cyclopropanecarboxamide]
0.01 to 100	0.01 to 100	101 to 500	O=C(NCCc1ccccc1)c1ccc(-c2cccn3nc(NC(=O)C4CC4)cc23)cc1 [Compound 5, 4-(2-(cyclopropanecarboxamido)pyrazolo[1,5-a]pyridin-4-yl)-N-phenethylbenzamide]
0.01 to 100	0.01 to 100	101 to 500	O=C(NCCOc1ccccc1)c1ccc(-c2cccn3nc(NC(=O)C4CC4)cc23)cc1 [Compound 6, 4-(2-(cyclopropanecarboxamido)pyrazolo[1,5-a]pyridin-4-yl)-N-(2-phenoxyethyl)benzamide]
0.01 to 100	0.01 to 100	101 to 500	N#Cc1ccc(COc2ccc(-c3cccn4nc(NC(=O)C5CC5)cc34)cc2)cn1 [Compound 9, N-(4-(4-((6-cyanopyridin-3-yl)methoxy)phenyl)pyrazolo[1,5-a]pyridin-2-yl)cyclopropanecarboxamide]
0.01 to 100	0.01 to 100	101 to 500	O=C(Nc1cc2c(-c3ccc(CN4CCS(=O)(=O)CC4)cc3)cccn2n1)C1CC1 [Compound 10, Cyclopropanecarboxylic acid {4-[4-(1,1-dioxo-thiomorpholin-4-ylmethyl)-phenyl]-pyrazolo[1,5-a]pyridin-2-yl}-amide]
0.01 to 100	0.01 to 100	501 to 1000	O=C(Nc1nn2cccc(-c3ccc(CN4CCS(=O)(=O)CC4)cc3)c2c1F)C1CC1 [Compound 11, Cyclopropanecarboxylic acid {4-[4-(1,1-dioxo-thiomorpholin-4-ylmethyl)-phenyl]-3-fluoro-pyrazolo[1,5-a]pyridin-2-yl}-amide]
0.01 to 100	0.01 to 100	> 1000	O=C(Nc1nn2cccc(-c3ccc(CN4CCS(=O)(=O)CC4)cc3)c2c1Br)C1CC1 [Compound 12, Cyclopropanecarboxylic acid {4-[4-(1,1-dioxo-thiomorpholin-4-ylmethyl)-phenyl]-3-bromo-pyrazolo[1,5-a]pyridin-2-yl}-amide]
0.01 to 100	0.01 to 100	501 to 1000	O=C(Nc1nn2cccc(-c3ccc(CN4CCS(=O)(=O)CC4)cc3)c2c1Cl)C1CC1 [Compound 13, Cyclopropanecarboxylic acid {4-[4-(1,1-dioxo-thiomorpholin-4-ylmethyl)-phenyl]-3-chloro-pyrazolo[1,5-a]pyridin-2-yl}-amide]
0.01 to 100	0.01 to 100		CC(=O)Nc1cc2c(-c3ccc(CN4CCN(CC(F)(F)F)CC4)c(F)c3)cccn2n1 [Compound 28, N-(4-(3-fluoro-4-((4-(2,2,2-trifluoroethyl)piperazin-1-yl)methyl)phenyl)pyrazolo[1,5-a]pyridin-2-yl)acetamide]
